# Results: patent US20240238244A1, “USE OF A COMPOUND SUCH AS […] TREATING A VIRAL PULMONARY DISEASE” (4LIVING BIOTECH, priority 2021, published 2024)
# Where “and” joins values, the source holds several entries; their conditions need not be identical. Identical values can stand only once. Like-named read-outs stand apart in the source and are kept apart here.
# Assays:
# [1] = tested on: H3N2 influenza A virus strain Scotland/20/74
# [2] = tested on: H3N2 influenza A virus strain Scotland/20/74; settings: day 7; for Mean IL-17 levels in lung homogenates: Influenza group 575.58, non-infected 874.47; for Mean IL-1β levels in lung homogenates: Influenza group 3502.64, non-infected 1347.22; for Mean TNFα levels in lung homogenates: Influenza group 11038.49, non-infected 11879.58; for Mean IL-6 levels in lung homogenates: Influenza group 15055.10, non-infected 2412.49; for Mean C5a levels in lung homogenates: Influenza group 3758066.67, non-infected 2540416.67; for Mean CRP levels in lung homogenates: Influenza group 9243070.24, non-infected 2718616.67
# [3] = tested on: H3N2 influenza A virus strain Scotland/20/74; settings: day 7; for Mean necrosis/cell death score: Influenza group 0.90; for Mean edema/HM/congestion score: Influenza group 1.50; for Mean inflammation score: Influenza group 1.90; for Mean total score according to Meyerholz and Beck: Influenza group 4.50
# [4] = tested on: H3N2 influenza A virus strain Scotland/20/74; settings: day 7; for Percentage of fibrocytes recruited in the lung: Infected group 28.05±26.78%, Not-infected 7.58±1.70%
# Protocol: Treatments were administered twice a day subcutaneously (SC) in mice from day 1 to day 6 by grasping the skin along back of mice. The needle was inserted at base of skin old between thumb and finger and solution was injected. Plerixafor® was administered (100 μl) twice a day to group “Infected+Plerixafor 1 mg/kg”, “Infected+Plerixafor 3 mg/kg”, and “Infected+Plerixafor 10 mg/kg”. Thus, mice received daily 1, 3 and 10 mg/kg for 7 days for group “Infected+Plerixafor 1 mg/kg”, “Infected+Plerixafor 3 mg/kg”, and “Infected+Plerixafor 10 mg/kg” respectively. Group “Infected” received water twice a day (100 μl).
# The percentage of general fibrocytes was evaluated in lung by flow cytometry analysis. The proportion of fibrocytes was assessed using a combination of Antibody/Fluorochrome, i.e. CD45+, FSP1+, and their viability was assessed using the Live Dead cell viability assay. For each tested condition, a general gating strategy was followed to identify the different sub-populations. First, cells of interest were selected according to granulometry and size events via the FSC-H (Forward Scatter Height) and SSC-H (Side Scatter Height) parameters. Then, on the selected cells, fibrocytes were identified as CD45+/FSP1+ cells.
# The percentage of fibrocytes recruited in the lung was evaluated at day 7 for 4 mice per group (3 for non-infected group).
# [5] = Plerixafor 2.5 mg/kg daily SC (group 3M)
# [6] = Plerixafor 5 mg/kg daily SC (group 4M)
# [7] = Plerixafor 10 mg/kg daily SC (group 5M)
# [8] = Plerixafor 20 mg/kg daily SC (group 6M)
# [9] = Plerixafor 20 mg/kg daily SC (group 6M), p<0.01
# [10] = Plerixafor at 2, 5, 5, 10 and 20 mg/kg
# [11] = Plerixafor at 2, 5, 5 and 10 mg/kg
smiles,measurement,setting,value
"c1cc(CN2CCCNCCNCCCNCC2)ccc1CN1CCCNCCNCCCNCC1 [Plerixafor, 1,1′-[1,4-phenylene-bis(methylene)]-bis-1,4,8,11-tetraazacyclotetradecane]",BW (body weight) 7 days after the infection,"[1]; Plerixafor 20 mg/kg daily (10 mg/kg SC twice a day, day 1 to 6), day 7, influenza group 94±5%, non-infected 103±4%, p<0.05",97±5%
same,Modulation of BW loss,"[1]; Plerixafor at doses inferior or equal to 10 mg/kg daily, SC twice a day, day 1 to 6",did not modulate BW loss
same,Mean IL-17 levels in lung homogenates,[2]; [5],748.08 pg/ml/g of tissue
same,Mean IL-1β levels in lung homogenates,[2]; [5],4317.27 pg/ml/g of tissue
same,Mean TNFα levels in lung homogenates,[2]; [5],8983.01 pg/ml/g of tissue
same,Mean IL-6 levels in lung homogenates,[2]; [5],11166.93 pg/ml/g of tissue
same,Mean C5a levels in lung homogenates,[2]; [5],3699919.44 pg/ml/g of tissue
same,Mean CRP levels in lung homogenates,[2]; [5],9241738.89 pg/ml/g of tissue
same,Mean IL-17 levels in lung homogenates,[2]; [6],663.57 pg/ml/g of tissue
same,Mean IL-1β levels in lung homogenates,[2]; [6],2534.11 pg/ml/g of tissue
same,Mean TNFα levels in lung homogenates,[2]; [6],9307.38 pg/ml/g of tissue
same,Mean IL-6 levels in lung homogenates,[2]; [6],11059.46 pg/ml/g of tissue
same,Mean C5a levels in lung homogenates,[2]; [6],3440259.52 pg/ml/g of tissue
same,Mean CRP levels in lung homogenates,[2]; [6],7792352.38 pg/ml/g of tissue
same,Mean IL-17 levels in lung homogenates,[2]; [7],799.98 pg/ml/g of tissue
same,Mean IL-1β levels in lung homogenates,[2]; [7],3319.66 pg/ml/g of tissue
same,Mean TNFα levels in lung homogenates,[2]; [7],11138.01 pg/ml/g of tissue
same,Mean IL-6 levels in lung homogenates,[2]; [7],13927.98 pg/ml/g of tissue
same,Mean C5a levels in lung homogenates,[2]; [7],3519038.68 pg/ml/g of tissue
same,Mean CRP levels in lung homogenates,[2]; [7],8406400.43 pg/ml/g of tissue
same,Mean IL-17 levels in lung homogenates,[2]; [8],603.22 pg/ml/g of tissue
same,Mean IL-1β levels in lung homogenates,[2]; [8],2805.78 pg/ml/g of tissue
same,Mean TNFα levels in lung homogenates,[2]; [8],6224.51±3014.54 pg/ml/g of tissue and 6224.51 pg/ml/g of tissue
same,Mean IL-6 levels in lung homogenates,"[2]; Plerixafor 20 mg/kg daily SC (group 6M), p<0.05",5408.82±3539.57 pg/ml/g of tissue and 5408.82 * pg/ml/g of tissue
same,Mean C5a levels in lung homogenates,[2]; [9],2220172.76±972810.94 pg/ml/g of tissue and 2220172.76 pg/ml/g of tissue
same,Mean CRP levels in lung homogenates,[2]; [9],4488307.08±2059120.87 pg/ml/g of tissue and 4488307.08 pg/ml/g of tissue
same,Modulation of IL-1β levels,[2]; [10],did not significantly modulate
same,Modulation of IL-17 levels,[2]; [10],did not significantly modulate
same,Modulation of C5a levels,[2]; [11],did not significantly modulate
same,Modulation of IL-6 levels in comparison to Influenza group,[2]; [11],did not significantly modulate
same,Modulation of TNFα levels,[2]; [11],did not significantly modulate
same,Modulation of CRP levels,"[2]; Plerixafor at 2.5, 5 and 10 mg/kg",did not significantly modulate
same,Mean necrosis/cell death score,[3]; [5],0.50
same,Mean edema/HM/congestion score,[3]; [5],0.70
same,Mean inflammation score,[3]; [5],1.40
same,Mean total score according to Meyerholz and Beck,[3]; [5],2.70
same,Mean necrosis/cell death score,[3]; [6],0.80
same,Mean edema/HM/congestion score,[3]; [6],0.90
same,Mean inflammation score,[3]; [6],2.00
same,Mean total score according to Meyerholz and Beck,[3]; [6],4.00
same,Mean necrosis/cell death score,[3]; [7],0.50
same,Mean edema/HM/congestion score,[3]; [7],0.50
same,Mean inflammation score,[3]; [7],1.70
same,Mean total score according to Meyerholz and Beck,[3]; [7],2.90
same,Mean necrosis/cell death score,[3]; [8],0.40±0.70 and 0.40
same,Mean edema/HM/congestion score,[3]; [8],0.60±0.52 and 0.60
same,Mean inflammation score,[3]; [8],1.60±1.17 and 1.60
same,Mean total score according to Meyerholz and Beck,[3]; [8],2.80±2.35 and 2.80
same,"Severity, distribution and incidence of pulmonary lesions in comparison to influenza treated mice","[3]; groups 3M, 4M, 5M and 6M (Plerixafor 2.5, 5, 10, 20 mg/kg daily SC)",slightly lower
same,Percentage of fibrocytes recruited in the lung,[4]; Infected+Plerixafor 1 mg/kg daily SC,19.77±19.93%
same,Percentage of fibrocytes recruited in the lung,[4]; Infected+Plerixafor 3 mg/kg daily SC,12.90±5.44%
same,Percentage of fibrocytes recruited in the lung,[4]; Infected+Plerixafor 10 mg/kg daily SC,23.86±18.39%
same,Effect on the recruitment of fibrocytes in the lung,"[4]; whatever the Plerixafor dosage tested (1, 3, 10 mg/kg daily), no dose-effect",does not affect significantly
